Experiments:
[1] = xn = mol fraction of the nth substance listed; details: 101 kPa, Liquid
[2] = refractive index (Na D-line) (dimensionless); xn = mol fraction of the nth substance listed; details: 101 kPa, Liquid

CC(=O)OCCC(C)C [3-methylbutyl ethanoate] + CCc1ccccc1
[1]
Details	mass density, 303.15 K [kg/m3]	mass density, 313.15 K [kg/m3]	viscosity, 303.15 K [mPa·s]	viscosity, 313.15 K [mPa·s]
x1 = 0.0851	856.9	848.8	0.597	0.533
x1 = 0.1684	858	849.1	0.605	0.541
x1 = 0.2613	858.4	849.7	0.615	0.549
x1 = 0.3719	859	850.3	0.629	0.559
x1 = 0.4584	859.6	850.9	0.639	0.567
x1 = 0.538	860.1	851.3	0.649	0.575
x1 = 0.6532	861.1	851.6	0.666	0.588
x1 = 0.7513	861.6	851.8	0.681	0.6
x1 = 0.8475	862	852.1	0.703	0.619
x1 = 0.9401	862.3	852.3	0.726	0.638

refractive index, [2], Standard Abbe refractometry
Details	x1 = 0.0851	x1 = 0.1684	x1 = 0.2613	x1 = 0.3719	x1 = 0.4584	x1 = 0.538	x1 = 0.6532	x1 = 0.7513	x1 = 0.8475	x1 = 0.9401
303.15 K	1.4802	1.4701	1.4593	1.4471	1.4376	1.4291	1.4177	1.4112	1.4041	1.3983
313.15 K	1.4781	1.4676	1.4565	1.4425	1.4342	1.4276	1.4168	1.4099	1.4035	1.3965

CC(=O)OCCC(C)C [3-methylbutyl ethanoate] + Cc1ccc(C)cc1
[1]
Details	mass density, 303.15 K [kg/m3]	mass density, 313.15 K [kg/m3]	viscosity, 303.15 K [mPa·s]	viscosity, 313.15 K [mPa·s]
x1 = 0.096	852.4	844.8	0.573	0.517
x1 = 0.1713	853.6	845.9	0.584	0.525
x1 = 0.2823	854.5	846.3	0.6	0.537
x1 = 0.3819	856.7	847.5	0.617	0.549
x1 = 0.4503	857.8	848.7	0.628	0.556
x1 = 0.5438	858.1	849.6	0.645	0.57
x1 = 0.6472	858.7	850.1	0.664	0.584
x1 = 0.7467	859.7	850.7	0.684	0.6
x1 = 0.8487	860.1	851.3	0.704	0.615
x1 = 0.9398	861	851.6	0.722	0.634

refractive index, [2], Standard Abbe refractometry
Details	x1 = 0.096	x1 = 0.1713	x1 = 0.2823	x1 = 0.3819	x1 = 0.4503	x1 = 0.5438	x1 = 0.6472	x1 = 0.7467	x1 = 0.8487	x1 = 0.9398
303.15 K	1.4821	1.4749	1.4645	1.4554	1.4495	1.4397	1.4293	1.4193	1.41	1.4017
313.15 K	1.4811	1.474	1.4621	1.4523	1.4454	1.4356	1.4248	1.4147	1.4056	1.3984

CC(=O)OCCC(C)C [3-methylbutyl ethanoate] + Cc1cccc(C)c1
[1]
Details	mass density, 303.15 K [kg/m3]	mass density, 313.15 K [kg/m3]	viscosity, 303.15 K [mPa·s]	viscosity, 313.15 K [mPa·s]
x1 = 0.0877	855.8	847.3	0.561	0.502
x1 = 0.1726	856.5	848.2	0.572	0.51
x1 = 0.3736	858.2	849.5	0.605	0.538
x1 = 0.4421	858.4	849.6	0.619	0.549
x1 = 0.5478	858.8	849.8	0.643	0.568
x1 = 0.657	859.3	850.3	0.666	0.587
x1 = 0.7478	860.1	851.1	0.687	0.603
x1 = 0.8501	861	851.9	0.708	0.623
x1 = 0.9465	861.9	852.8	0.727	0.638

refractive index, [2], Standard Abbe refractometry
Details	x1 = 0.0877	x1 = 0.1726	x1 = 0.3736	x1 = 0.4421	x1 = 0.5478	x1 = 0.657	x1 = 0.7478	x1 = 0.8501	x1 = 0.9465
303.15 K	1.483	1.4745	1.4549	1.4487	1.4398	1.4297	1.4207	1.4101	1.4014
313.15 K	1.4811	1.4724	1.452	1.4456	1.435	1.4248	1.4157	1.4056	1.3985

CC(=O)OCCC(C)C [3-methylbutyl ethanoate] + Cc1ccccc1C
Details	mass density, [1] [kg/m3]	refractive index, [2]	viscosity, [1] [mPa·s]
303.15 K, x1 = 0.0856	869.7	1.4903	0.705
303.15 K, x1 = 0.1739	869.5	1.4806	0.707
303.15 K, x1 = 0.2554	868.2	1.4721	0.709
303.15 K, x1 = 0.3538	867.8	1.462	0.712
303.15 K, x1 = 0.445	867.4	1.453	0.714
303.15 K, x1 = 0.5481	866	1.4436	0.718
303.15 K, x1 = 0.6564	865	1.4319	0.722
303.15 K, x1 = 0.7531	864.1	1.4217	0.726
303.15 K, x1 = 0.8542	863.7	1.4113	0.731
303.15 K, x1 = 0.9538	863.2	1.4018	0.738
313.15 K, x1 = 0.0856	861.4	1.488	0.622
313.15 K, x1 = 0.1739	860.8	1.4779	0.623
313.15 K, x1 = 0.2554	859.8	1.4695	0.623
313.15 K, x1 = 0.3538	859.1	1.458	0.624
313.15 K, x1 = 0.445	858.4	1.4486	0.625
313.15 K, x1 = 0.5481	856.7	1.4375	0.627
313.15 K, x1 = 0.6564	855.8	1.4258	0.631
313.15 K, x1 = 0.7531	855.1	1.4157	0.635
313.15 K, x1 = 0.8542	854.7	1.4062	0.64
313.15 K, x1 = 0.9538	853.9	1.3961	0.646

COC(=O)c1ccccc1 [methyl benzoate] + CCc1ccccc1
[1]
Details	mass density, 303.15 K [kg/m3]	mass density, 313.15 K [kg/m3]	viscosity, 303.15 K [mPa·s]	viscosity, 313.15 K [mPa·s]
x1 = 0.1033	877.9	870.2	0.656	0.583
x1 = 0.1927	898.9	890.3	0.701	0.641
x1 = 0.2952	921.6	912.7	0.784	0.687
x1 = 0.3974	943.6	935	0.857	0.75
x1 = 0.4947	963.3	954.1	0.947	0.824
x1 = 0.5866	982.3	973.7	1.043	0.925
x1 = 0.6963	1000.3	992	1.17	1.048
x1 = 0.7953	1023.3	1010.3	1.308	1.165
x1 = 0.9016	1053.3	1043.3	1.464	1.287
x1 = 0.951	1056.8	1047.4	1.566	1.346

refractive index, [2], Standard Abbe refractometry
Details	x1 = 0.1033	x1 = 0.1927	x1 = 0.2952	x1 = 0.3974	x1 = 0.4947	x1 = 0.5866	x1 = 0.6963	x1 = 0.7953	x1 = 0.9016	x1 = 0.951
303.15 K	1.4911	1.4933	1.4945	1.4958	1.4968	1.4978	1.5022	1.5054	1.509	1.5092
313.15 K	1.4888	1.49	1.4918	1.4928	1.4937	1.4955	1.4985	1.5014	1.5044	1.5064

COC(=O)c1ccccc1 [methyl benzoate] + Cc1ccc(C)cc1
[1]
Details	mass density, 303.15 K [kg/m3]	mass density, 313.15 K [kg/m3]	viscosity, 303.15 K [mPa·s]	viscosity, 313.15 K [mPa·s]
x1 = 0.0958	873	864.7	0.616	0.551
x1 = 0.2055	898.1	889.5	0.693	0.609
x1 = 0.3011	919.3	911.1	0.759	0.67
x1 = 0.399	940.9	932.3	0.839	0.728
x1 = 0.4951	961.9	953.1	0.922	0.803
x1 = 0.5988	984.4	975.7	1.033	0.889
x1 = 0.6973	1006.2	1000.4	1.152	0.992
x1 = 0.7846	1024.4	1013	1.269	1.093
x1 = 0.9027	1056	1047.3	1.45	1.253
x1 = 0.948	1059.2	1050.3	1.561	1.322

refractive index, [2], Standard Abbe refractometry
Details	x1 = 0.0958	x1 = 0.2055	x1 = 0.3011	x1 = 0.399	x1 = 0.4951	x1 = 0.5988	x1 = 0.6973	x1 = 0.7846	x1 = 0.9027	x1 = 0.948
303.15 K	1.492	1.4939	1.4947	1.4959	1.4969	1.4982	1.5012	1.5055	1.5122	1.5104
313.15 K	1.4913	1.4922	1.4932	1.4945	1.4952	1.4961	1.4989	1.5014	1.5088	1.509

COC(=O)c1ccccc1 [methyl benzoate] + Cc1cccc(C)c1
[1]
Details	mass density, 303.15 K [kg/m3]	mass density, 313.15 K [kg/m3]	viscosity, 303.15 K [mPa·s]	viscosity, 313.15 K [mPa·s]
x1 = 0.1071	878.7	870.6	0.609	0.544
x1 = 0.203	900.2	891.9	0.672	0.598
x1 = 0.3034	922.3	914.2	0.739	0.654
x1 = 0.3924	941.4	933.2	0.824	0.729
x1 = 0.4909	962.7	954.4	0.923	0.804
x1 = 0.5978	985.7	977.1	1.023	0.892
x1 = 0.6867	1004.6	995.8	1.134	0.978
x1 = 0.8125	1029.6	1021.9	1.316	1.122
x1 = 0.8734	1043.8	1034.8	1.403	1.191
x1 = 0.9518	1059.6	1050.7	1.565	1.317

refractive index, [2], Standard Abbe refractometry
Details	x1 = 0.1071	x1 = 0.203	x1 = 0.3034	x1 = 0.3924	x1 = 0.4909	x1 = 0.5978	x1 = 0.6867	x1 = 0.8125	x1 = 0.8734	x1 = 0.9518
303.15 K	1.4933	1.4943	1.4954	1.4962	1.4973	1.5004	1.5033	1.5069	1.5093	1.5107
313.15 K	1.4911	1.4919	1.4927	1.4933	1.4941	1.496	1.4987	1.502	1.504	1.5064

— the NIST ThermoML archive (doi:10.1021/je800325d)
